# Measured values as given in paper PMC12655351, “Synthesis and Anticancer Activity Evaluation of New 5-((5-Nitrofuran-2-yl)allylidene)-2-thioxo-4-thiazolidinones” (Pharmaceuticals, 2025).
# pIC50: −log10 of the molar value. Where “and” joins values, the source holds several entries; their conditions need not be identical. Equal entries are not always repeated. Where two headings read alike, the source gives them in different places.
# Columns and labels:
# MCF-7 = experiment: [3H]-thymidine incorporation assay; format: cell-based; settings: Homo sapiens, MCF7; MCF-7, 24 h of treatment
# Procedure: (§1) Another method of assessing the cytotoxic effects of tested compounds, [^3H]-thymidine incorporation assay, was applied. This method provided the capability to analyze the antiproliferative activity of novel structures on MCF-7 and MDA-MB-231 through their ability to incorporate thymidine into the cells. The acquired results further confirmed the potent activity of the 14b compound as the most prominent structure among the novel compounds (Table 2). The test was carried out in triplicate at concentrations of 5, 15, and 30 μM for the MDA-MB-231 cell line and 1, 5, and 10 μM for the MCF-7 cell line.
# (§2) Following the selection of cell lines for further study, the effects of all compounds on cell proliferation were evaluated on MCF-7 and MDA-MB-231 cell lines. Cells were seeded in 24-well plates and cultured as described above. Cells were treated with the compounds at concentrations 1, 5, and 10 μM, and 5, 15, and 30 μM for MCF-7 and MDA-MB-231 cell lines, respectively, for 24 h. Subsequently, 0.5 μCi [^3H]-thymidine was added for 4 h at 37 °C. Then, plates with cells were placed on the ice, the liquid was aspirated, and cells were washed twice with 1mL of 0.05 M Tris-HCl buffer comprising 0.11 M NaCl and precipitated by adding 1 mL per well of 5% trichloroacetic. After precipitation, the cells were dissolved with 1 mL of 0.1 M NaOH with 1% SDS (Sigma-Aldrich, St. Louis, MO, USA) at room temperature (RT). The cell lysates were transferred into scintillation vials containing 2 mL of scintillation fluid (Ultima Gold™ XR, PerkinElmer, MA, USA), and cell-associated radioactivity was measured using a Scintillation Counter 1900 TR, TRI-CARB (Packard, Perkin Elmer, Inc., San Jose, CA, USA). The [^3H]-thymidine uptake was expressed as a percentage of the control value.
# MDA-MB-231 = experiment: [3H]-thymidine incorporation assay; format: cell-based; settings: Homo sapiens; MDA-MB-231, 24 h of treatment
# Procedure: as §1, §2
# NCI-H23 = settings: for CC50: human
# HCC-2998 = settings: for growth GP: HCC-2998, 10 μM, 48 h
# SF-539 = settings: SF-539, 10 μM, 48 h
# OVCAR-3 [1] = settings: for GI50 / TGI: OVCAR-3, 48 h
# OVCAR-4 = settings: for growth GP: OVCAR-4, 10 μM; for GI50 / TGI: OVCAR-4, 48 h
# NCI/ADR-RES = settings: 48 h
# MDA-MB-231/ATCC = settings: 10 μM, 48 h
# T-47D = settings: 48 h
# Melanoma = Melanoma subpanel
# Ovarian cancer = Ovarian cancer subpanel
# Prostate Cancer = Prostate Cancer subpanel
# [2] = test system: panel of 60 cancer cell lines; settings: for Positive cytostatic effect (ratio of cell lines with GP from 0 to 50 to total number) / Mean growth: 10 μM, 48 h; for Mean growth: one dose; for MG_MID TGI: full panel (last line of Table S2)
# SR [3] = experiment: cells; settings: Homo sapiens, 48 h
# LOX IMVI = experiment: cells; settings: Homo sapiens, 48 h; for CC50: read-out: LC50, LOX IMVI, 48 h
# OVCAR-3 [4] = experiment: cells; settings: Homo sapiens, OVCAR-3, 48 h
# 786-0 = experiment: cells; settings: Homo sapiens, 786-0, 48 h
# SN12C = experiment: cells; settings: Homo sapiens, 48 h
# Leukemia = experiment: cells; settings: Homo sapiens; for GI50: read-out: MG_MID GI50; for CC50: read-out: MG_MID LC50
# Breast cancer = experiment: cells; settings: Homo sapiens; for GI50: read-out: MG_MID GI50; for CC50: read-out: MG_MID LC50
# HOP-62 = experiment: NCI-60 SRB screen; settings: for TGI / GI50: HOP-62, 48 h
# SF-295 = experiment: NCI-60 SRB screen; settings: SF-295, 48 h; for CC50: read-out: LC50, SF-295, 48 h
# SNB-19 = experiment: NCI-60 SRB screen; settings: for CC50 / TGI / GI50: SNB-19, 48 h; for CC50: read-out: LC50, SNB-19, 48 h
# SNB-75 = experiment: NCI-60 SRB screen; settings: SNB-75, 48 h; for CC50: read-out: LC50, SNB-75, 48 h
# U251 = experiment: NCI-60 SRB screen
# RXF 393 = experiment: NCI-60 SRB screen; settings: RXF 393, 10 μM, 48 h
# Colon cancer = experiment: NCI-60 SRB screen, subpanel; settings: for MG_MID TGI: Colon cancer subpanel; for GI50 / CC50: Homo sapiens; for GI50: read-out: MG_MID GI50; for CC50: read-out: MG_MID LC50
# SR [5] = settings: 48 h
# HS 578T = settings: 48 h
# [6] = Homo sapiens, U-251, 48 h, U251, 48 h
# [7] = Homo sapiens, U-251, 48 h, read-out: LC50, U251, 48 h
compound,measurement,setting,value
"O=C(O)CCCN1C(=O)/C(=C/C=C/c2ccc([N+](=O)[O-])o2)SC1=S [13b, 4-((Z)-5-((E)-3-(5-Nitrofuran-2-yl)allylidene)-4-oxo-2-thioxothiazolidin-3-yl)butanoic acid]",pIC50,MCF-7,5.40
same,pIC50,MDA-MB-231,5.75
same,growth GP,"NCI-H23; NCI-H23, 10 μM, 48 h",-93.85%
same,TGI,"NCI-H23; NCI-H23, 48 h",3090 nM and 2040 nM
same,CC50,NCI-H23; 48 h,5700 nM
same,growth GP,HCC-2998,-95.27%
same,growth GP,SF-539,-98.91%
same,GI50,OVCAR-3 [1],390 nM
same,TGI,OVCAR-3 [1],2040 nM and 1360 nM
same,growth GP,OVCAR-4; 48 h,-97.74%
same,GI50,OVCAR-4,1560 nM
same,TGI,OVCAR-4,2580 nM and 2940 nM
same,CC50,"OVCAR-4; human, 48 h",5540 nM
same,GI50,NCI/ADR-RES,260 nM
same,TGI,NCI/ADR-RES,1230 nM and 770 nM
same,growth GP,MDA-MB-231/ATCC,-95.61%
same,GI50,T-47D,230 nM
same,MG_MID TGI,Melanoma,1460 nM
same,MG_MID TGI,Ovarian cancer,2990 nM
same,MG_MID TGI,Prostate Cancer,2570 nM
same,Positive cytostatic effect (ratio of cell lines with GP from 0 to 50 to total number),[2],2/55
same,Mean growth,[2],-76.34%
same,MG_MID TGI,[2],4880 nM
same,CC50,SR [3]; read-out: LC50,> 100000 nM
same,GI50,LOX IMVI,190 nM
same,CC50,LOX IMVI,920 nM
same,GI50,OVCAR-3 [4],770 nM
same,GI50,786-0,320 nM
same,GI50,SN12C,340 nM
same,GI50,Leukemia,9340 nM
same,CC50,Leukemia,87000 nM
same,GI50,Breast cancer,530 nM
same,CC50,Breast cancer,36000 nM
same,growth GP,"HOP-62; HOP-62, 10 μM, 48 h",-94.79%
same,TGI,HOP-62,2670 nM and 1900 nM
same,CC50,SF-295; Homo sapiens,6310 nM
same,TGI,SF-295,3240 nM and 2070 nM
same,CC50,SNB-19; Homo sapiens,6050 nM
same,growth GP,"SNB-19; SNB-19, 10 μM, 48 h",-96.10%
same,TGI,SNB-19,3160 nM and 2100 nM
same,GI50,SNB-75; Homo sapiens,380 nM
same,CC50,SNB-75; Homo sapiens,8730 nM
same,GI50,SNB-75,320 nM
same,TGI,SNB-75,1990 nM and 1370 nM
same,GI50,U251; [6],370 nM
same,CC50,U251; [7],4230 nM
same,GI50,"U251; U251, 48 h",190 nM
same,CC50,"U251; read-out: LC50, U251, 48 h",3160 nM
same,growth GP,RXF 393,-97.90%
same,MG_MID TGI,Colon cancer,1350 nM
same,GI50,Colon cancer,520 nM
same,CC50,Colon cancer,11900 nM
"O=C(O)CCCCCN1C(=O)/C(=C/C=C/c2ccc([N+](=O)[O-])o2)SC1=S [14b, 6-((Z)-5-((E)-3-(5-nitrofuran-2-yl)allylidene)-4-oxo-2-thioxothiazolidin-3-yl)hexanoic acid]",pIC50,MCF-7,5.59
same,pIC50,MDA-MB-231,5.80
same,TGI,SR [5],960 nM
same,GI50,"NCI-H23; NCI-H23, 48 h",1230 nM
same,TGI,"NCI-H23; NCI-H23, 48 h",3100 nM and 2690 nM
same,CC50,NCI-H23; 48 h,5890 nM
same,growth GP,HCC-2998,-95.72%
same,GI50,"HCC-2998; HCC-2998, 48 h",1600 nM
same,TGI,"HCC-2998; HCC-2998, 48 h",3320 nM and 2980 nM
same,growth GP,SF-539,-98.05%
same,growth GP,"OVCAR-3 [1]; OVCAR-3, 10 μM, 48 h",-95.33%
same,GI50,OVCAR-3 [1],960 nM
same,TGI,OVCAR-3 [1],2350 nM and 2220 nM
same,growth GP,OVCAR-4; 48 h,-97.80%
same,GI50,OVCAR-4,1490 nM
same,TGI,OVCAR-4,2690 nM and 2840 nM
same,GI50,NCI/ADR-RES,430 nM
same,TGI,NCI/ADR-RES,1850 nM and 2390 nM
same,growth GP,MDA-MB-231/ATCC,-99.86%
same,GI50,HS 578T,790 nM
same,TGI,HS 578T,6440 nM and 7760 nM
same,MG_MID TGI,Melanoma,1820 nM
same,MG_MID TGI,Ovarian cancer,2920 nM
same,MG_MID TGI,Prostate Cancer,3130 nM
same,Positive cytostatic effect (ratio of cell lines with GP from 0 to 50 to total number),[2],4/55
same,Mean growth,[2],-67.89%
same,MG_MID TGI,[2],3580 nM
same,GI50,SR [3],270 nM
same,GI50,LOX IMVI,200 nM
same,CC50,LOX IMVI,880 nM
same,GI50,OVCAR-3 [4],1120 nM
same,GI50,786-0,610 nM
same,GI50,SN12C,360 nM
same,CC50,"SN12C; read-out: LC50, SN12C, 48 h",3890 nM
same,GI50,Leukemia,410 nM
same,CC50,Leukemia,64900 nM
same,GI50,Breast cancer,650 nM
same,CC50,Breast cancer,36500 nM
same,GI50,HOP-62,1450 nM
same,TGI,HOP-62,3050 nM and 3010 nM
same,GI50,HOP-62; Homo sapiens,1440 nM
same,GI50,SF-295; Homo sapiens,1910 nM
same,CC50,SF-295; Homo sapiens,8720 nM
same,GI50,SF-295,1700 nM
same,TGI,SF-295,4080 nM and 3360 nM
same,GI50,SNB-19; Homo sapiens,1760 nM
same,CC50,SNB-19; Homo sapiens,7430 nM
same,GI50,SNB-19,1450 nM
same,TGI,SNB-19,3620 nM and 3110 nM
same,CC50,SNB-75; Homo sapiens,5680 nM
same,TGI,SNB-75,2610 nM and 1430 nM
same,GI50,U251; [6],570 nM
same,CC50,U251; [7],4860 nM
same,GI50,"U251; U251, 48 h",340 nM
same,TGI,"U251; U251, 48 h",1920 nM and 1220 nM
same,MG_MID TGI,Colon cancer,1920 nM
same,GI50,Colon cancer,870 nM
same,CC50,Colon cancer,11700 nM
